{"source": "patent US20240293551A1", "about": "“USE OF ST-TYPE LIPID COMPOUNDS IN PREPARATION OF NUCLEIC ACID DELIVERY REAGENT AND RELATED PRODUCT” (INSTITUTE OF BASIC MEDICAL SCIENCES CHINESE ACADEMY OF …, priority 2021, published 2024)", "system": "PGY-sRNA-26", "experiment": "In vivo delivery study of lipid-nucleic acid mixture (oral gavage, RT-qPCR of PGY-sRNA-26 in tissues)", "set-up": "species or system mouse", "conditions": "C57BL/6 mice, gavage, 100 μg lipid: 10 nmol PGY-sRNA-26, 12 hours; for delivery efficacy over each tissue and blood tested (broad-spectrum delivery): all tissues and blood tested; for oral delivery of single-stranded sRNA nucleic acids into mouse intestinal tissue: intestine", "how_it_was_run": "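C57BL/6 male mice (~6 weeks, 20-24 g), fasted 12 h, were gavaged with 10 nmol 3′-methylated PGY-sRNA-26 mixed with 100 μg lipid (heated 90° C. 15 min), versus saline or free sRNA (n=4 each). After 12 h, blood and tissues were Trizol-extracted; sRNA quantified by stem-loop RT-qPCR relative to U6.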", "data": [{"smiles": "C=C1/C(=C\\C=C2/CCC[C@]3(C)[C@@H]([C@H](C)/C=C/[C@@H](O)C4CC4)CC[C@@H]23)C[C@@H](O)C[C@@H]1O", "note": "[Lipid 554]", "values": [{"measurement": "delivery efficacy over each tissue and blood tested (broad-spectrum delivery)", "result": "exhibited the best delivery efficacy"}, {"measurement": "oral delivery of single-stranded sRNA nucleic acids into mouse blood", "result": "can effectively orally deliver"}, {"measurement": "oral delivery of single-stranded sRNA nucleic acids into mouse brain tissue", "result": "can effectively orally deliver"}, {"measurement": "oral delivery of single-stranded sRNA nucleic acids into mouse femur", "result": "can effectively orally deliver"}, {"measurement": "oral delivery of single-stranded sRNA nucleic acids into mouse heart tissue", "result": "can effectively orally deliver"}, {"measurement": "oral delivery of single-stranded sRNA nucleic acids into mouse intestinal tissue", "result": "can effectively orally deliver"}, {"measurement": "oral delivery of single-stranded sRNA nucleic acids into mouse kidney tissue", "result": "can effectively orally deliver"}, {"measurement": "oral delivery of single-stranded sRNA nucleic acids into mouse liver tissue", "result": "can effectively orally deliver"}, {"measurement": "oral delivery of single-stranded sRNA nucleic acids into mouse lung tissue", "result": "can effectively orally deliver"}, {"measurement": "oral delivery of single-stranded sRNA nucleic acids into mouse spleen tissue", "result": "can effectively orally deliver"}, {"measurement": "oral delivery of single-stranded sRNA nucleic acids into mouse stomach tissue", "result": "can effectively orally deliver"}]}, {"smiles": "CCCCCCCCCCCCCCCCCC(=O)O[C@H]1CC[C@@]2(C)C(=CC[C@H]3[C@@H]4CC[C@H]([C@H](C)CCCC(C)C)[C@@]4(C)CC[C@@H]32)C1", "note": "[Lipid 584]", "values": [{"measurement": "oral delivery of single-stranded sRNA nucleic acids into mouse blood", "result": "can effectively orally deliver"}, {"measurement": "oral delivery of single-stranded sRNA nucleic acids into mouse brain tissue", "result": "can effectively orally deliver"}, {"measurement": "oral delivery of single-stranded sRNA nucleic acids into mouse femur", "result": "can effectively orally deliver"}, {"measurement": "oral delivery of single-stranded sRNA nucleic acids into mouse heart tissue", "result": "can effectively orally deliver"}, {"measurement": "oral delivery of single-stranded sRNA nucleic acids into mouse intestinal tissue", "result": "can effectively orally deliver"}, {"measurement": "oral delivery of single-stranded sRNA nucleic acids into mouse liver tissue", "result": "can effectively orally deliver"}, {"measurement": "oral delivery of single-stranded sRNA nucleic acids into mouse lung tissue", "result": "can effectively orally deliver"}, {"measurement": "oral delivery of single-stranded sRNA nucleic acids into mouse spleen tissue", "result": "can effectively orally deliver"}, {"measurement": "oral delivery of single-stranded sRNA nucleic acids into mouse stomach tissue", "result": "can effectively orally deliver"}]}, {"smiles": "CC(=O)[C@H]1CC[C@H]2[C@@H]3CCC4=CC(=O)CC[C@]4(C)[C@H]3CC[C@]12C", "note": "[Lipid 575]", "values": [{"measurement": "delivery efficacy over each tissue and blood tested (broad-spectrum delivery)", "result": "exhibited the best delivery efficacy"}, {"measurement": "oral delivery of single-stranded sRNA nucleic acids into mouse blood", "result": "can effectively orally deliver"}, {"measurement": "oral delivery of single-stranded sRNA nucleic acids into mouse brain tissue", "result": "can effectively orally deliver"}, {"measurement": "oral delivery of single-stranded sRNA nucleic acids into mouse femur", "result": "can effectively orally deliver"}, {"measurement": "oral delivery of single-stranded sRNA nucleic acids into mouse heart tissue", "result": "can effectively orally deliver"}, {"measurement": "oral delivery of single-stranded sRNA nucleic acids into mouse intestinal tissue", "result": "can effectively orally deliver"}, {"measurement": "oral delivery of single-stranded sRNA nucleic acids into mouse kidney tissue", "result": "can effectively orally deliver"}, {"measurement": "oral delivery of single-stranded sRNA nucleic acids into mouse liver tissue", "result": "can effectively orally deliver"}, {"measurement": "oral delivery of single-stranded sRNA nucleic acids into mouse lung tissue", "result": "can effectively orally deliver"}, {"measurement": "oral delivery of single-stranded sRNA nucleic acids into mouse spleen tissue", "result": "can effectively orally deliver"}, {"measurement": "oral delivery of single-stranded sRNA nucleic acids into mouse stomach tissue", "result": "can effectively orally deliver"}]}, {"smiles": "CC(C)CCC[C@@H](C)[C@H]1CC[C@H]2[C@@H]3CC[C@H]4CCCC[C@]4(C)[C@H]3CC[C@]12C", "note": "[Lipid 653, 5α-cholestane (5R,8R,9S,10S,13R,14S,17R)-10,13-dimethyl-17-[(2R)-6-methylheptan-2-yl]-2,3,4,5,6,7,8,9,11,12,14,15,16,17-tetradecahydro-1H-cyclopenta[a]phenanthrene]", "values": [{"measurement": "delivery efficacy over each tissue and blood tested (broad-spectrum delivery)", "result": "exhibited the best delivery efficacy"}, {"measurement": "oral delivery of single-stranded sRNA nucleic acids into mouse blood", "result": "can effectively orally deliver"}, {"measurement": "oral delivery of single-stranded sRNA nucleic acids into mouse brain tissue", "result": "can effectively orally deliver"}, {"measurement": "oral delivery of single-stranded sRNA nucleic acids into mouse femur", "result": "can effectively orally deliver"}, {"measurement": "oral delivery of single-stranded sRNA nucleic acids into mouse heart tissue", "result": "can effectively orally deliver"}, {"measurement": "oral delivery of single-stranded sRNA nucleic acids into mouse intestinal tissue", "result": "can effectively orally deliver"}, {"measurement": "oral delivery of single-stranded sRNA nucleic acids into mouse kidney tissue", "result": "can effectively orally deliver"}, {"measurement": "oral delivery of single-stranded sRNA nucleic acids into mouse liver tissue", "result": "can effectively orally deliver"}, {"measurement": "oral delivery of single-stranded sRNA nucleic acids into mouse lung tissue", "result": "can effectively orally deliver"}, {"measurement": "oral delivery of single-stranded sRNA nucleic acids into mouse spleen tissue", "result": "can effectively orally deliver"}, {"measurement": "oral delivery of single-stranded sRNA nucleic acids into mouse stomach tissue", "result": "can effectively orally deliver"}]}, {"smiles": "C[C@H](CCC(=O)O)[C@H]1CC[C@H]2[C@@H]3[C@H](O)C[C@@H]4C[C@H](O)CC[C@]4(C)[C@H]3CC[C@]12C", "note": "[Lipid 580]", "values": [{"measurement": "oral delivery of single-stranded sRNA nucleic acids into mouse blood", "result": "can effectively orally deliver"}, {"measurement": "oral delivery of single-stranded sRNA nucleic acids into mouse brain tissue", "result": "can effectively orally deliver"}, {"measurement": "oral delivery of single-stranded sRNA nucleic acids into mouse femur", "result": "can effectively orally deliver"}, {"measurement": "oral delivery of single-stranded sRNA nucleic acids into mouse heart tissue", "result": "can effectively orally deliver"}, {"measurement": "oral delivery of single-stranded sRNA nucleic acids into mouse intestinal tissue", "result": "can effectively orally deliver"}, {"measurement": "oral delivery of single-stranded sRNA nucleic acids into mouse liver tissue", "result": "can effectively orally deliver"}, {"measurement": "oral delivery of single-stranded sRNA nucleic acids into mouse lung tissue", "result": "can effectively orally deliver"}, {"measurement": "oral delivery of single-stranded sRNA nucleic acids into mouse spleen tissue", "result": "can effectively orally deliver"}, {"measurement": "oral delivery of single-stranded sRNA nucleic acids into mouse stomach tissue", "result": "can effectively orally deliver"}]}, {"smiles": "C=C1/C(=C\\C=C2/CCC[C@]3(C)[C@@H]([C@H](C)/C=C/[C@H](C)C(C)(C)O)CC[C@@H]23)C[C@@H](O)C[C@@H]1O", "note": "[Lipid 570]", "values": [{"measurement": "delivery efficacy over each tissue and blood tested (broad-spectrum delivery)", "result": "exhibited the best delivery efficacy"}, {"measurement": "oral delivery of single-stranded sRNA nucleic acids into mouse blood", "result": "can effectively orally deliver"}, {"measurement": "oral delivery of single-stranded sRNA nucleic acids into mouse brain tissue", "result": "can effectively orally deliver"}, {"measurement": "oral delivery of single-stranded sRNA nucleic acids into mouse femur", "result": "can effectively orally deliver"}, {"measurement": "oral delivery of single-stranded sRNA nucleic acids into mouse heart tissue", "result": "can effectively orally deliver"}, {"measurement": "oral delivery of single-stranded sRNA nucleic acids into mouse intestinal tissue", "result": "can effectively orally deliver"}, {"measurement": "oral delivery of single-stranded sRNA nucleic acids into mouse kidney tissue", "result": "can effectively orally deliver"}, {"measurement": "oral delivery of single-stranded sRNA nucleic acids into mouse liver tissue", "result": "can effectively orally deliver"}, {"measurement": "oral delivery of single-stranded sRNA nucleic acids into mouse lung tissue", "result": "can effectively orally deliver"}, {"measurement": "oral delivery of single-stranded sRNA nucleic acids into mouse spleen tissue", "result": "can effectively orally deliver"}, {"measurement": "oral delivery of single-stranded sRNA nucleic acids into mouse stomach tissue", "result": "can effectively orally deliver"}]}, {"smiles": "C[C@H](/C=C/[C@H](C)C(C)(C)O)[C@H]1CC[C@H]2/C(=C/C=C3C[C@@H](O)C[C@H](O)C3)CCC[C@]12C", "note": "[Lipid 545]", "values": [{"measurement": "delivery efficacy over each tissue and blood tested (broad-spectrum delivery)", "result": "exhibited the best delivery efficacy"}, {"measurement": "oral delivery of single-stranded sRNA nucleic acids into mouse blood", "result": "can effectively orally deliver"}, {"measurement": "oral delivery of single-stranded sRNA nucleic acids into mouse brain tissue", "result": "can effectively orally deliver"}, {"measurement": "oral delivery of single-stranded sRNA nucleic acids into mouse femur", "result": "can effectively orally deliver"}, {"measurement": "oral delivery of single-stranded sRNA nucleic acids into mouse heart tissue", "result": "can effectively orally deliver"}, {"measurement": "oral delivery of single-stranded sRNA nucleic acids into mouse intestinal tissue", "result": "can effectively orally deliver"}, {"measurement": "oral delivery of single-stranded sRNA nucleic acids into mouse kidney tissue", "result": "can effectively orally deliver"}, {"measurement": "oral delivery of single-stranded sRNA nucleic acids into mouse liver tissue", "result": "can effectively orally deliver"}, {"measurement": "oral delivery of single-stranded sRNA nucleic acids into mouse lung tissue", "result": "can effectively orally deliver"}, {"measurement": "oral delivery of single-stranded sRNA nucleic acids into mouse spleen tissue", "result": "can effectively orally deliver"}, {"measurement": "oral delivery of single-stranded sRNA nucleic acids into mouse stomach tissue", "result": "can effectively orally deliver"}]}, {"smiles": "C#C[C@]1(O)CC[C@H]2[C@@H]3CCC4=CC(=O)CC[C@@H]4[C@H]3CC[C@@]21CC", "note": "[Lipid 560]", "values": [{"measurement": "delivery efficacy over each tissue and blood tested (broad-spectrum delivery)", "result": "exhibited the best delivery efficacy"}, {"measurement": "oral delivery of single-stranded sRNA nucleic acids into mouse blood", "result": "can effectively orally deliver"}, {"measurement": "oral delivery of single-stranded sRNA nucleic acids into mouse brain tissue", "result": "can effectively orally deliver"}, {"measurement": "oral delivery of single-stranded sRNA nucleic acids into mouse femur", "result": "can effectively orally deliver"}, {"measurement": "oral delivery of single-stranded sRNA nucleic acids into mouse heart tissue", "result": "can effectively orally deliver"}, {"measurement": "oral delivery of single-stranded sRNA nucleic acids into mouse intestinal tissue", "result": "can effectively orally deliver"}, {"measurement": "oral delivery of single-stranded sRNA nucleic acids into mouse kidney tissue", "result": "can effectively orally deliver"}, {"measurement": "oral delivery of single-stranded sRNA nucleic acids into mouse liver tissue", "result": "can effectively orally deliver"}, {"measurement": "oral delivery of single-stranded sRNA nucleic acids into mouse lung tissue", "result": "can effectively orally deliver"}, {"measurement": "oral delivery of single-stranded sRNA nucleic acids into mouse spleen tissue", "result": "can effectively orally deliver"}, {"measurement": "oral delivery of single-stranded sRNA nucleic acids into mouse stomach tissue", "result": "can effectively orally deliver"}]}, {"smiles": "C=C1/C(=C\\C=C2/CCC[C@]3(C)[C@@H]([C@H](C)/C=C/[C@H](C)C(C)C)CC[C@@H]23)C[C@@H](O)C[C@@H]1O", "note": "[Lipid 569]", "values": [{"measurement": "delivery efficacy over each tissue and blood tested (broad-spectrum delivery)", "result": "exhibited the best delivery efficacy"}, {"measurement": "oral delivery of single-stranded sRNA nucleic acids into mouse blood", "result": "can effectively orally deliver"}, {"measurement": "oral delivery of single-stranded sRNA nucleic acids into mouse brain tissue", "result": "can effectively orally deliver"}, {"measurement": "oral delivery of single-stranded sRNA nucleic acids into mouse femur", "result": "can effectively orally deliver"}, {"measurement": "oral delivery of single-stranded sRNA nucleic acids into mouse heart tissue", "result": "can effectively orally deliver"}, {"measurement": "oral delivery of single-stranded sRNA nucleic acids into mouse intestinal tissue", "result": "can effectively orally deliver"}, {"measurement": "oral delivery of single-stranded sRNA nucleic acids into mouse kidney tissue", "result": "can effectively orally deliver"}, {"measurement": "oral delivery of single-stranded sRNA nucleic acids into mouse liver tissue", "result": "can effectively orally deliver"}, {"measurement": "oral delivery of single-stranded sRNA nucleic acids into mouse lung tissue", "result": "can effectively orally deliver"}, {"measurement": "oral delivery of single-stranded sRNA nucleic acids into mouse spleen tissue", "result": "can effectively orally deliver"}, {"measurement": "oral delivery of single-stranded sRNA nucleic acids into mouse stomach tissue", "result": "can effectively orally deliver"}]}]}
